Publication PMC4967831, “Structural dissection of a complex Bacteroides ovatus gene locus conferring xyloglucan metabolism in the human gut” (Open Biology, 2016)
Each block holds one molecule with its values, some of them ahead of it.

Columns and labels:
Assay type in all cases: binding
BoGH31 = target: T1, BoGH31 (Bacteroides ovatus, UniProt A7LXT0); test: crystal structure of covalent glycosyl-enzyme intermediate (soak)
T1 construct: gene BACOVA_02646; pET-YSBL3C construct with N-terminal His6-tag and 3C-cleavage site

BoGH43A [1] = target: T2, BoGH43A (Bacteroides ovatus, UniProt A7LXT8); test: ITC and crystal structure of the complex
T2 construct: gene BACOVA_02654; pET28a construct with N-terminal His6-tag

BoGH43B = target: T3, BoGH43B (Bacteroides ovatus, UniProt A7LXU0); test: ITC
T3 construct: gene BACOVA_02656; expressed from pET21a(BoGH43B)
T3 sequence (A7LXU0 24-529): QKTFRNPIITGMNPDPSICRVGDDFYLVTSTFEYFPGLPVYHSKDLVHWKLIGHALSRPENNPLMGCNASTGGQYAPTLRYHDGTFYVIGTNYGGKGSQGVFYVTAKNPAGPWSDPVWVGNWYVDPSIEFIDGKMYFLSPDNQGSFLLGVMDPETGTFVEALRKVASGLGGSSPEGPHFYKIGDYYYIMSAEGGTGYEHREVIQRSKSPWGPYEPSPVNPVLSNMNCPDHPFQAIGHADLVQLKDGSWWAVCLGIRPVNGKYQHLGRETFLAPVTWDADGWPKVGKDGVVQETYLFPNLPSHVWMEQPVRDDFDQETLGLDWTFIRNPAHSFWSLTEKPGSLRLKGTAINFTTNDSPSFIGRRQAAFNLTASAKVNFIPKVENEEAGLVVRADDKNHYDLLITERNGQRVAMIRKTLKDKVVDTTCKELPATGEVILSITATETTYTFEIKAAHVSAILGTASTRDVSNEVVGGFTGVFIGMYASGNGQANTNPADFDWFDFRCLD

BoGH43A [2] = target: T2, BoGH43A; test: crystal structure of the complex (soak); too weak to be measured by ITC
BoGH3B = target: T4, BoGH3B (Bacteroides ovatus, UniProt A7LXU3); test: crystal structure; glucose co-purified in the active site
T4 construct: gene BACOVA_02659; expressed from pET21a(GH3B)
T4 sequence (A7LXU3 23-786): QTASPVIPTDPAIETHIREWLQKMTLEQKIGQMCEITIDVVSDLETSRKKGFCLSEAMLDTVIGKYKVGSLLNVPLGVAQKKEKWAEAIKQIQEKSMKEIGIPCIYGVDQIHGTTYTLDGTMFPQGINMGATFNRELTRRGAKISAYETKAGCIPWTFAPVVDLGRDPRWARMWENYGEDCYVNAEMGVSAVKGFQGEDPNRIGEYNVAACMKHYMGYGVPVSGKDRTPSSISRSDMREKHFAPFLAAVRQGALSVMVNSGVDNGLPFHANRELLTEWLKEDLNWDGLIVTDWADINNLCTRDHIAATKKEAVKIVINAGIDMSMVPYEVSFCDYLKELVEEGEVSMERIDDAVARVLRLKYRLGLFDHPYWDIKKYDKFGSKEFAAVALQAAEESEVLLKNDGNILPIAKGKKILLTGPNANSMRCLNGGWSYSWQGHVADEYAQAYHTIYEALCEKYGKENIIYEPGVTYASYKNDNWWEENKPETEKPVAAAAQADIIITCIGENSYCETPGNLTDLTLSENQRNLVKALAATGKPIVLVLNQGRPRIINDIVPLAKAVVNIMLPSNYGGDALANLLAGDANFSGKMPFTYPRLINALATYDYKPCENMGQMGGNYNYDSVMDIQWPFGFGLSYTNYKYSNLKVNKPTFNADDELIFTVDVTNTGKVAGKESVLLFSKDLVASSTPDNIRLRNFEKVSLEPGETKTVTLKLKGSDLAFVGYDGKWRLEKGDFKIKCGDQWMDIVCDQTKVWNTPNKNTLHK

T2 sequence (A7LXT8 21-526): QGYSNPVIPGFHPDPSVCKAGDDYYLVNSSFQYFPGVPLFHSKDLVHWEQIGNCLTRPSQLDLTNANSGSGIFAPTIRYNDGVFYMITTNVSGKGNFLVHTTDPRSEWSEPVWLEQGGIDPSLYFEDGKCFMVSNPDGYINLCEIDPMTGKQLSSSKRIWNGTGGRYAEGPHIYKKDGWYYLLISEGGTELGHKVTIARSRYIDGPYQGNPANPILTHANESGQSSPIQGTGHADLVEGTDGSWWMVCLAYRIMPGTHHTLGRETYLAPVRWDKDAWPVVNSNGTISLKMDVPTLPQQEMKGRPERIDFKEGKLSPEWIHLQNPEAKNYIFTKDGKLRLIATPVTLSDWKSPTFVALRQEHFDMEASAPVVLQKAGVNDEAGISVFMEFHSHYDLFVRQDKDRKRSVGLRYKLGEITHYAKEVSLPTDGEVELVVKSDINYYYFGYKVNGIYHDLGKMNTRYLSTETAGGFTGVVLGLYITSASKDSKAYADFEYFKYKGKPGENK
T1 sequence (A7LXT0 22-954): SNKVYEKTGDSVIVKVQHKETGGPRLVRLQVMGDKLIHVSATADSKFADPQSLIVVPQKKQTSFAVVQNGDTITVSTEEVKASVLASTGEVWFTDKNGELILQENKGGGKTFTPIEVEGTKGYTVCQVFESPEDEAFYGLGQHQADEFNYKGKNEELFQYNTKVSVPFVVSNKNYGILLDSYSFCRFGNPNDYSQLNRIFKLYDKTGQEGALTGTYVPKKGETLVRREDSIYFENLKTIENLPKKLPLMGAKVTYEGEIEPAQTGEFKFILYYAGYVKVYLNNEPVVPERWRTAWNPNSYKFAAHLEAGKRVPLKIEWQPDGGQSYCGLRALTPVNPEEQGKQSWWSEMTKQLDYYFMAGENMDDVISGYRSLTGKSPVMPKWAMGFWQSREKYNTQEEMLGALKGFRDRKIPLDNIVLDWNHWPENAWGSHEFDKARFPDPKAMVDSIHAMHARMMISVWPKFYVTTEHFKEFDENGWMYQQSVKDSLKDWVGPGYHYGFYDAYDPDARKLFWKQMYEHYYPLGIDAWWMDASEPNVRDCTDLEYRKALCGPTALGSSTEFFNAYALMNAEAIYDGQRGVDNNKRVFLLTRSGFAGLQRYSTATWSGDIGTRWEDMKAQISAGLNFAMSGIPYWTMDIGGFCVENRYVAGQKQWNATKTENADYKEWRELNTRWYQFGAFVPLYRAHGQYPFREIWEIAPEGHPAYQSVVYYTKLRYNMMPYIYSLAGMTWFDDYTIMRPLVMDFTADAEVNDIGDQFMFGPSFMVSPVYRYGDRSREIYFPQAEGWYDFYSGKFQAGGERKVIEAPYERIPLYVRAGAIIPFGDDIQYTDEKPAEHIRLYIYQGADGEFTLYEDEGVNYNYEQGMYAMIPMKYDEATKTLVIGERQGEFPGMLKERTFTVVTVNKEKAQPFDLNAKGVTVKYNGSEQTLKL

SMILES: OC[C@]1(F)O[C@H](F)[C@H](O)[C@@H](O)[C@@H]1O [5FIdoF, 5-fluoro-β-L-idosyl fluoride]
crystal structure of covalent glycosyl-enzyme intermediate (soak) (BoGH31): 5FIdoF forms an α-glycosidic linkage to the side-chain carboxylate of Asp553

Kd (BoGH43A [1]): 35 ± 4 µM | Kd (BoGH43B): 111 ± 6 µM
SMILES: OC[C@@H]1NC[C@H](O)[C@H]1O [AraDNJ]

SMILES: OC[C@@H]1O/C(=N\O)[C@H](O)[C@H]1O [AraLOG, (Z)-L-Arabinonhydroximo-1,4-lactone]
crystal structure of the complex (soak); too weak to be measured by ITC (BoGH43A [2]): the inhibitor stacking against Tyr187 while also H-bonding directly to the side chains of Glu210 and Glu189

SMILES: OC[C@H]1O[C@@H](O)[C@H](O)[C@@H](O)[C@@H]1O [glucose]
crystal structure; glucose co-purified in the active site (BoGH3B): BoGH3B was found to co-purify with glucose in its active site (figure 5b)
